Laboratory results reported in PubChem BioAssay (NCI).
Values joined by “and” are separate entries in the source; they are usually repeats but may differ in a detail not shown here. Identical values can stand only once.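 Dose response: 5 concentrations. Exposure: 48 h. Format: 96-well plates. Endpoint: linear interpolation; highest concentration if not reached. GI50 is the concentration that inhibits growth by half. TGI denotes the concentration required for complete inhibition of growth.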

Experiments:
Assay in all cases: NCI tumour cell line growth inhibition, 48 h
K-562 leukemia = test system: K-562 leukemia
KM12 colon = test system: KM12 colon
LOX IMVI melanoma = test system: LOX IMVI melanoma
NCI-H460 lung = test system: NCI-H460 lung
PC-3 prostate = test system: PC-3 prostate
SK-MEL-5 melanoma = test system: SK-MEL-5 melanoma
SW-620 colon = test system: SW-620 colon
T-47D breast = test system: T-47D breast
U251 CNS = test system: U251 CNS
UO-31 renal = test system: UO-31 renal

| SMILES | GI50 (K-562 leukemia) | TGI (K-562 leukemia) | GI50 (KM12 colon) | TGI (KM12 colon) | TGI (LOX IMVI melanoma) | GI50 (NCI-H460 lung) | TGI (NCI-H460 lung) | GI50 (PC-3 prostate) | TGI (PC-3 prostate) | GI50 (SK-MEL-5 melanoma) | TGI (SK-MEL-5 melanoma) | GI50 (SW-620 colon) | TGI (SW-620 colon) | GI50 (T-47D breast) | TGI (T-47D breast) | GI50 (U251 CNS) | TGI (U251 CNS) | GI50 (UO-31 renal) | TGI (UO-31 renal) | GI50 (LOX IMVI melanoma) |
| --- | --- | --- | --- | --- | --- | --- | --- | --- | --- | --- | --- | --- | --- | --- | --- | --- | --- | --- | --- | --- |
| Cc1cc(C(=O)NOCCO)c(Nc2ccc(I)cc2F)n(C)c1=O | 0.321 µM and 0.19 µM | > 100 µM | 0.0263 µM and < 0.0161 µM | > 100 µM | > 100 µM | > 10 µM and 46.7 µM | > 100 µM | > 100 µM | > 100 µM | < 0.01 µM | > 100 µM | 0.00252 µM and < 0.01 µM | > 100 µM | > 10 µM and 78.9 µM | > 100 µM | > 10 µM and 2.81 µM | > 100 µM | 0.0289 µM and < 0.045 µM | > 100 µM | – |
| O=C1NC(=O)/C(=C/c2ccc3nccc(-c4ccncc4)c3c2)S1 | 1.89 µM | > 10 µM | 0.817 µM | > 10 µM | 2.73 µM | 0.487 µM | > 10 µM | 0.282 µM | 2.9 µM | 0.419 µM | 1.63 µM | 0.517 µM | > 10 µM | 0.0497 µM | 0.432 µM | 0.261 µM | 2.23 µM | 0.14 µM | 1.05 µM | 0.247 µM |
| O=C(O)[C@@H](Cc1ccccc1)NS(=O)(=O)c1ccc(-c2ccccc2)cc1 | > 100 µM | > 100 µM | > 100 µM | > 100 µM | > 100 µM | > 100 µM | > 100 µM | > 100 µM | > 100 µM | > 100 µM | > 100 µM | > 100 µM | > 100 µM | > 100 µM | > 100 µM | > 100 µM | > 100 µM | 24.9 µM | 59.4 µM | > 100 µM |
| COC(=O)C1(N2CCOCC2)CCC([C@@H](c2ccccc2)C(C)[N+](=O)[O-])C1 (stereo partly specified) | – | > 100 µM | – | > 100 µM | > 100 µM | – | > 100 µM | – | > 100 µM | – | > 100 µM | – | > 100 µM | – | 9.62 µM | – | > 100 µM | – | > 100 µM | – |
| NS(=O)(=O)c1ccc(NC(=O)Nc2cccc3ccccc23)cc1 | – | > 100 µM | – | > 100 µM | > 100 µM | – | > 100 µM | – | 44 µM | – | > 100 µM | – | > 100 µM | – | > 100 µM | – | 36.2 µM | – | 31.8 µM | – |
| C=C1CC2(CC(c3ccccc3C)OC(c3ccccc3C)C2)OC1=O (stereo unspecified) | – | 5.09 µM | – | 6.06 µM | 3.05 µM | – | 14.2 µM | – | 5.78 µM | – | 3.97 µM | – | 3.59 µM | – | 3.21 µM | – | 25.9 µM | – | 11.3 µM | – |
| OC(CBr)C(O)C(O)C(O)CBr (stereo unspecified) | – | > 100 µM | – | > 100 µM | > 100 µM | – | > 100 µM | – | > 100 µM | > 100 µM | > 100 µM | – | > 100 µM | – | > 100 µM | – | > 100 µM | > 100 µM | > 100 µM | – |
| C[C@H]1O[C@@H](O[C@H]2[C@@H](O)C[C@H](O[C@H]3[C@@H](O)C[C@H](O[C@H]4CC[C@]5(C)C6CC[C@]7(C)[C@@H](C8=CC(=O)OC8)CC[C@]7(O)C6CC[C@@H]5C4)O[C@@H]3C)O[C@@H]2C)C[C@H](O)[C@@H]1O (stereo partly specified) | 0.0159 µM | 0.0799 µM | 0.0247 µM | 0.103 µM | 0.0549 µM | 0.00973 µM | 0.0231 µM | 0.0194 µM | 0.106 µM | 0.0156 µM | 0.0493 µM | 0.0178 µM | 0.0678 µM | 0.0172 µM | 0.0608 µM | 0.0186 µM | 0.0676 µM | 0.0181 µM | 0.0722 µM | 0.0156 µM |
| COc1cccc(/C=C/C(=O)c2cc3c(N)c(C(=O)Nc4ccccc4)sc3nc2C)c1 | 1.47 µM | > 50 µM | 0.988 µM | 2.23 µM | 1.64 µM | 1.1 µM | 2.47 µM | 1.47 µM | 5.06 µM | 1.48 µM | 5.53 µM | 1.12 µM | 3.09 µM | 1.24 µM | 3.89 µM | 0.897 µM | 1.72 µM | 0.842 µM | 1.62 µM | 0.887 µM |
| Cc1ccc(O)c(C(=O)/C=C/c2ccccc2)c1 | – | > 100 µM | – | > 100 µM | > 100 µM | – | > 100 µM | – | > 100 µM | – | > 100 µM | – | > 100 µM | – | > 100 µM | – | > 100 µM | – | > 100 µM | – |
| N/C(=N/O)NOCCC(N)C(=O)O (stereo unspecified) | > 100 µM | > 100 µM | > 100 µM | > 100 µM | > 100 µM | > 100 µM | > 100 µM | > 100 µM | > 100 µM | > 100 µM | > 100 µM | > 100 µM | > 100 µM | > 100 µM | > 100 µM | > 100 µM | > 100 µM | > 100 µM | > 100 µM | > 100 µM |
| COc1cc(N2CCN(C(C)C)CC2)ccc1Nc1nc(Nc2ccc(F)cc2C(N)=O)c2cc[nH]c2n1 | 3.31 µM | 15.2 µM | 3.14 µM | 7.97 µM | 4.63 µM | 0.0985 µM | 3.72 µM | 3.75 µM | 12.9 µM | 0.747 µM | 5.28 µM | 0.0905 µM | 4.17 µM | 3.49 µM | 8.2 µM | 2.72 µM | 6.13 µM | 0.996 µM | 5.28 µM | 0.124 µM |
| CNC(=O)c1cc(Oc2ccc(NC(=O)Nc3ccc(Cl)c(C(F)(F)F)c3)cc2)ccn1 | 1.7 µM and 2.5 µM and 2.53 µM | > 100 µM | 2.42 µM and 1.86 µM and 1.8 µM | > 10 µM and 8.07 µM and 6.97 µM | > 10 µM and 3.3 µM and 4.31 µM | 3.17 µM and 2.88 µM and 2.44 µM | > 10 µM and 10.2 µM and 7.09 µM | 2.2 µM and 2.6 µM and 2.14 µM | 8.51 µM and 8.9 µM and 8.57 µM | 1.43 µM and 1.61 µM and 1.57 µM | 3.14 µM and 2.97 µM and 3.25 µM | 4.26 µM and 3.05 µM and 2.87 µM | > 10 µM and 12 µM and 9.35 µM | 1.82 µM and 2.31 µM and 1.87 µM | > 10 µM and 7.43 µM and 7.85 µM | 2.84 µM and 2.05 µM and 2.14 µM | > 10 µM and 5.82 µM and 5.94 µM | 3.08 µM and 3.03 µM and 2.57 µM | > 10 µM and 8.18 µM and 6.2 µM | 2.52 µM and 1.5 µM and 1.67 µM |
| O=C(COc1ccc(Cl)cc1Cl)NNc1ccc([N+](=O)[O-])cc1 | 39 µM | > 100 µM | > 100 µM | > 100 µM | > 100 µM | > 100 µM | > 100 µM | > 100 µM | > 100 µM | > 100 µM | > 100 µM | > 100 µM | > 100 µM | 43.3 µM | > 100 µM | 20.1 µM | 43.6 µM | > 100 µM | > 100 µM | > 100 µM |
| O=C(Nc1ccn(C2CCC(COC(c3ccccc3)(c3ccccc3)c3ccccc3)O2)c(=O)n1)c1ccccc1 (stereo unspecified) | – | 7.97 µM | – | 14.6 µM | 7.02 µM | – | 10.4 µM | – | 5.71 µM | – | 6.41 µM | – | 15.2 µM | – | 27.9 µM | – | 13.8 µM | – | 14.1 µM | – |
| Cn1cc(-c2[nH]c3cc(NC(=O)[C@H](N)C4CCCCC4)cc4c3c2C=NNC4=O)cn1 | 0.193 µM and 0.205 µM | 1.78 µM and > 10 µM | 1.66 µM and 0.95 µM | 12.7 µM and > 10 µM | 3.52 µM and 1.66 µM | 4.11 µM and 3.59 µM | 19.9 µM and > 10 µM | 0.72 µM and 1.96 µM | 18.3 µM and > 10 µM | 0.696 µM and 0.55 µM | 13.1 µM and > 10 µM | 0.53 µM and 0.829 µM | 13.6 µM and > 10 µM | 15 µM | 31.3 µM | 0.418 µM and 0.415 µM | 12.9 µM and > 10 µM | 2.54 µM and 2.35 µM | 9.07 µM and > 10 µM | 0.305 µM and 0.268 µM |
| c1ccc2c(c1)CCCc1nnc3nc4ccccc4n3c1-2 | 3.87 µM | > 100 µM | 5.37 µM | 27.6 µM | 10.9 µM | 3.65 µM | 16.6 µM | 7.87 µM | > 100 µM | 4.89 µM | > 100 µM | 5.06 µM | 24.2 µM | 5.49 µM | > 100 µM | 3.29 µM | 24.1 µM | 3.08 µM | 30.5 µM | 2.61 µM |
| Cc1ccccc1N=C(c1ccccc1)C1C(=O)c2ccccc2C1=O | 25.6 µM | > 100 µM | 10.7 µM | 30.8 µM | 71.6 µM | 6.91 µM | 38 µM | 18.9 µM | 62 µM | 2.41 µM | 13.3 µM | 25.3 µM | > 100 µM | 4.12 µM | 36.5 µM | 24.6 µM | > 100 µM | 4.14 µM | 47.4 µM | 21.7 µM |
| COc1ccc2c(c1)C(=O)CC(C(N)=O)C2 (stereo unspecified) | – | > 100 µM | – | > 100 µM | > 100 µM | – | > 100 µM | – | > 100 µM | – | > 100 µM | – | > 100 µM | – | > 100 µM | – | > 100 µM | – | > 100 µM | – |
